Experimental data taken from US10624874B2, “Lasofoxifene modulation of membrane-initiated estrogen signals and methods for tumor treatment” (Zhejiang Jiachi Development Pharmaceuticals LTD, priority 2017, dated 2020).

How the values were obtained:
H460 cells = assay: Proliferation of H460 lung cancer cells; type: cell-based; details: for proliferation of H460 cells: 2 μM, ER-α36+/EGFR+ cells, FIG. 5-B
Description: (§1) A. Cell lines HBE, H1299 and H460 were cultured. Expression of EGFR, ER-α66, ER-α46, ER-α36, ER-β, GPER-1 were tested using Western blot. B. HBE cells and H460 cells were treated with 2 μM tamoxifen or 2 μM lasofoxifene. Proliferation of HBE cells and H460 cells were shown after each treatment. C. H460 cells were treated with vehicle only, or gefitinib, or lasofoxifene, or a combination of gefitinib and lasofoxifene. Proliferation of […] were shown after each treatment. D. H1299 were treated with vehicle only, or gefitinib, or lasofoxifene, or a combination of gefitinib and lasofoxifene. Proliferation of lung cancer cells was shown after each treatment.
(§2) Cells were inoculated into 24 well plates with culture medium and treated using the designated concentration of drugs. Cell number was counted using a cell counter (Count Star). The cell bio-behaviors including total cell number and movement were measured using a real-time cell monitoring system. Briefly, the image was captured at 5 min intervals for 66 h. Cell morphological parameters and the movement of each individual cell was calculated following manufacture's instruction.
(§3) We thus tested the expression of ER-α36 from lung cancer cells.

H1299 cells = assay: Proliferation of H1299 lung cancer cells; type: cell-based
Description: as §1, §2, §3

MCF-7 cells = assay: Inhibition of MCF-7 cell division, cells pre-cultured with or without insulin; type: cell-based, human; details: same drug compared between ER-α36 positive (insulin-free) and insulin medium cells, FIG. 3B
Description: A. MCF-7 cells were grown in insulin-free (IL-) medium for three months. Expression of ER-α66, ER-α36, ER-β and GPER were tested using Western blot. B. MCF-7 cells, after cultured in either medium with insulin or without insulin, were treated with tamoxifen or lasofoxifene. […] C. It compares IC50 (μM) of MCF-7 cells responding to tamoxifen or lasofoxifene at the condition of pre-cultured in medium without insulin. *** indicates P<0.001. D. Graph compares IC50 (μM) of MCF-7 cells responding to tamoxifen or lasofoxifene at the condition of pre-cultured in medium with insulin. * indicates P<0.05.
The transcription variant of ER-α36 lacks the AF-1 and AF2 domains. […] It was found located at plasma membrane and cytosol (Boonyaratanakornkit, V. Steroids. 2011 August; 76(9):877-84). […] Phosphorylated IRS interacts with dimer estrogen-ER complexes, which can then translocate into the nucleus and bond with ERE sequence to regulate RNA transcription through the estrogen classical nuclear pathway. […] In contrast, the expression levels of other estrogen receptors were not affected (FIG. 3A).

ER-α = molecular target: T1, ER-α (Homo sapiens, UniProt P03372); details: cited from earlier work
T1 sequence (P03372 311-547 limits assumed): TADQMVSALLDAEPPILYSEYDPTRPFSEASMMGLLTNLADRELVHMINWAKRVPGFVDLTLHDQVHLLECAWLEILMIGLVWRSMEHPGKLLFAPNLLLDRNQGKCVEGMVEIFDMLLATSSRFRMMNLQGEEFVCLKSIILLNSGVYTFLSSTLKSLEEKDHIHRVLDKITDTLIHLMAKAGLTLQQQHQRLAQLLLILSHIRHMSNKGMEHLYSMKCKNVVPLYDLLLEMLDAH

ER-β = ER-β (Homo sapiens, UniProt Q92731); details: higher affinity than raloxifene and tamoxifen; Gennari 2006; cited from earlier work
Sequence of ER-β (Q92731 whole entry, species assumed): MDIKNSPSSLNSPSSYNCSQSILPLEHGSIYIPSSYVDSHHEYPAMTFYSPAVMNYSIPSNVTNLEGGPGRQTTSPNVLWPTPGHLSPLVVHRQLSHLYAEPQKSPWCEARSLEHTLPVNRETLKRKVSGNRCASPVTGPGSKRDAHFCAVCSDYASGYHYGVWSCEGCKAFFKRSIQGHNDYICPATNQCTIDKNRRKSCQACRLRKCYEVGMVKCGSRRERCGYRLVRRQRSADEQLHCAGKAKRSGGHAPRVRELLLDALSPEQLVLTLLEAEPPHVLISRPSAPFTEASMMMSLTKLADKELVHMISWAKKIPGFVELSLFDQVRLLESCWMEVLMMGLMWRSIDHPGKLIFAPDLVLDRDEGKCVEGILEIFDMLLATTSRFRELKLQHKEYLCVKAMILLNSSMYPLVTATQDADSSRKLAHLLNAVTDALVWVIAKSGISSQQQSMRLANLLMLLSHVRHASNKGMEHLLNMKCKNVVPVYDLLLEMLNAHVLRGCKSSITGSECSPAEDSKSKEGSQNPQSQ

[1] = tested on: MDA-MB231 breast cancer cells; assay: Proliferation of triple negative MDA-MB231 breast cancer cells; type: cell-based; details: ER-α36 positive MDA-MB231, DMEM 10% FBS, FIG. 9
Description: MDA-MB231 cells treated with lasofoxifene in DMEM medium containing 10% FBS. N=3×3; * and ** mean P<0.05 and P<0.01, respectively.

colon cancer cells = assay: Colon cancer cell division; type: cell-based; details: ER-α36 positive colon cancer cells, FIG. 8-B
Description: (§4) A: ER-α36 was positively expressed in colon cancer cells. […] NCC: normal colon cells. CCC: colon cancer cells. C: ER-α36 was positively expressed in gastric cancer cells. […] NGC: normal gastric cells. GCC: gastric cancer cells. N=3×3; *** means P<0.001.

HBE cells = assay: Proliferation of HBE cells; type: cell-based; details: 2 μM, cells not expressing ER-α36, FIG. 5-B
Description: as §1, §2, §3

[2] = tested on: tamoxifen-resistance MCF-7 cells; assay: Proliferation of acquired tamoxifen-resistance MCF-7 cells; type: cell-based, human; details: FIG. 4B
Description: A. MCF-7 cells were treated with tamoxifen for ten months. Expression of ER-α66, ER-α46, ER-α36, GPER-1 were tested using Western blot. B. After MCF-7 cells were treated with tamoxifen for ten months, cells were treated with either 2 μM tamoxifen or 2 μM lasofoxifene. Proliferation of MCF-7 were shown under each treatment. ** indicates P<0.01.
MCF-7 cells were grown in EMEM medium containing 10% FBS, antibiotics and 0.1 μM tamoxifen for three months. And then increase tamoxifen concentration to 0.5 μM for another three months, Finally, MCF-7 cells were grown in EMEM medium containing 10% FBS, antibiotics and 1 μM tamoxifen for four months. Tamoxifen-resistance MCF-7 cells were tested by counting cell proliferation rate when cells were grown in high concentration tamoxifen.
To verify our hypothesis that overexpressed ER-α36 variant may result in acquired de novo tamoxifen-resistance, we induced MCF-7 cells using tamoxifen for ten months. We found the expression of ER-α66 was decreased ([…], top panel). In contrast, the expression level of ER-α36 was enhanced (FIG. 4A, middle panel). The expression level of GPER1 was not affected (FIG. 4A bottom panel).

xenograft H460 tumors = assay: Growth of xenograft H460 tumors in nude mice; type: in vivo; details: intragastric daily for 2-3 weeks, FIG. 7
Description: FIG. 7: Activity to Inhibition of growth of xenograft-ER-α36+/EGFR+ lung tumor (H460) in nude mice by lasofoxifene (LAS) and/or gefitinib. A. Nude mice were grafted with H460 cells. Tumor size were shown after treatment with gefitinib, 3 mg lasofoxifene per kilogram of mouse body mass (3 mg/kg, Las3.0), 1.5 mg lasofoxifene per kilogram of mouse body mass (1.5 mg/kg, Las1.5), 0.75 mg lasofoxifene per kilogram of mouse body mass (0.75 mg/kg, Las0.75), or a combination of gefitinib and 1.5 mg lasofoxifene per kilogram of mouse body mass (Gef+Las1.5). B. Statistical result of tumor mass from two repeat experiments (n≥6).* and ** mean P<0.05 and P<0.01, respectively.
H460 cells were grown in RPMI-1640 medium containing 10% FBS. When cells are 70-80% confluent and ready for experiments, replace medium with fresh medium for 3 hours. Remove medium and wash cells with medium without FBS for three times. Cells were then trypsinized and suspended in medium, equal volume of cells and support gel was mixed up to 200 μl for each injection. Cells were injected subcutaneously (s.c.) into 4-6 week old nude mice. 1.0˜2.0×10^6 H460 cells were administrated into each nude mouse. […] Tumor size were calculated by the formula: volume=(width)^2×length/2.
To verify in vitro results, we constructed xenograft H460 tumors in nude mice. The tumor size was measured using digital vernier caliper. […]

[3] = tested on: BT474 breast cancer cells; assay: Proliferation of Herceptin-resistance BT474 breast cancer cells; type: cell-based; details: cells treated with 10 μg/ml Herceptin 3 months; 2 μM lasofoxifene, FIG. 10B
Description: BT474 breast cancer cells were treated with 10 μg/ml Herceptin® in medium for 3 months. A. Cells positively expressed of ER-α36, and decreased the expression level of HER2.

gastric cancer cells = assay: Gastric cancer cell division; type: cell-based; details: ER-α36 positive gastric cancer cells, FIG. 8-D
Description: as §4

[4] = tested on: Bcl-2 expression in MCF-7 cells; assay: Bcl-2 expression in MCF-7 cells by western blotting; type: cell-based, human; details: for effect on Bcl-2 expression in medium without estrogen: MCF-7, charcoal stripped FBS, phenol red-free EMEM, vs Blank, FIG. 2B
Description: FIG. 2: Inhibition of Bcl-2 expression in MCF-7 cells by lasofoxifene in comparison with tamoxifen. A: MCF-7 cells were cultured in either EMEM medium containing 10% FBS (Normal) or 5% charcoal striped FBS (CS) for 72 hours. Western blotting assay were performed to analyze Bcl-2 expression (CS: charcoal striped). B: MCF-7 cells were cultured in EMEM medium containing insulin and 5% charcoal striped FBS for 72 hours and then treated by lasofoxifene and tamoxifen for 48 hours. Western blotting assay were performed to analyze Bcl-2 expression. C. MCF-7 were cultured in EMEM medium containing insulin and 10% FBS for 72 hours and then treated by lasofoxifene and tamoxifen for 48 hours. Western blotting assay were performed to analyze Bcl-2 expression. […] E. Statistical analysis of three repeats of part C. N=3×3.
HEK-293, MCF-7, MDA-MB-231, HBE, H1299 and H460 cells were grown following ATCC protocol. The expression level of estrogen-bound receptors was measured using western blotting. Briefly, 80-90% confluence cells were harvested and lysed in RIPA buffer or 1×PBS containing 1% triton-x-100 and protease inhibitor cocktail. Total protein concentration was measured using Bio-rad protein staining dye. Western blotting was performed following standard protocol using nitrocellulose membrane (Millipore) and Bio-rad semi-dry transfer system. The equal amount of total protein from cell lysate was loaded to SDS-PAGE for western blotting. The expression level of ER-α36 and 66, ER-β and GPER1 was measured using antibody.
Estrogen and ER complex binds to estrogen response element (ERE) in chromosome to regulate RNA transcription. Bcl-2 is a key member of anti-apoptosis family proteins. Its overexpression has been linked to many kinds of cancers in human being. […] We first assessed whether lasofoxifene inhibited Bcl-2 expression at higher efficiency compared to tamoxifen. MCF-7 cells were grown in DMEM medium containing insulin and 10% FBS or 5% charcoal striped FBS for 72 h. Cells were then treated by lasofoxifene and tamoxifen for 48 h. We confirmed previous study that the expression of Bcl-2 protein was enhanced by culture medium containing estrogen compared with that containing charcoal-stripped (CS) FBS (FIGS. 2A and B, Blank).

GPER1 = molecular target: T2, GPER1 (Homo sapiens, UniProt Q99527); assay: Cytosolic Ca2+ in HEK293 cells overexpressing GPER1-EGFP (Fura-red); type: cell-based; details: HEK293 overexpressing GPER1-EGFP vs EGFP vector, FIG. 11B
T2 construct: expressed in transfected cells; host or cells: HEK293
T2 sequence (Q99527 whole entry, species assumed): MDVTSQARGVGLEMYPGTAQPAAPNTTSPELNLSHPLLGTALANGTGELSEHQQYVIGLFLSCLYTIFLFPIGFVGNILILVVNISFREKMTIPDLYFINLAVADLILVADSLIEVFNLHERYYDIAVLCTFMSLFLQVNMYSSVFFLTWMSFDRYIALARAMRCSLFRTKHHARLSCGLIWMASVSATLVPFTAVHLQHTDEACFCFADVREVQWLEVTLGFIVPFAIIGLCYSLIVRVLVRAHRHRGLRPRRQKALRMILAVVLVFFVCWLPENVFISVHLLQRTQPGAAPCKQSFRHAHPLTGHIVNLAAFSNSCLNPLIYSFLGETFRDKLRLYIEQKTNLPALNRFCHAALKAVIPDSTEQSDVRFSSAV
Description: A. HEK293 cells were transfected with either GPER1-EGFP or EGFP alone.
The assays were performed as following. Briefly, cells were grown on a glass-bottomed perfusion chamber mounted on the stage of an inverted confocal microscope (Andor), and then incubated with 2 μM Fura-red AM (Molecular Probes, Eugene, Oreg., USA) for 60 min at 37° C. in normal culture media. Cells were then perfused continuously with Hanks' balanced salt solution (Sigma) containing 1.8 mM CaCl2 and 0.8 mM MgCl2, pH 7.4. […] Cells were perfused with complete culture media without phenol red, and Fura-red was excited at 572 nm. The fluorescence emitted at 657 nm was then collected and recorded using a CCD-based imaging system running software (Andor).

COc1cc2ncnc(Nc3ccc(F)c(Cl)c3)c2cc1OCCCN1CCOCC1 [gefitinib]
proliferation of H460 cells, gefitinib alone or combined (H460 cells; concentration not given, FIG. 5C): inhibited the proliferation of H460
proliferation of H1299 cells, gefitinib alone or combined (H1299 cells; concentration not given, FIG. 5D): did not inhibit H1299 cell proliferation

Oc1ccc2c(c1)CC[C@H](c1ccccc1)[C@@H]2c1ccc(OCCN2CCCC2)cc1 [lasofoxifene, (−)-cis-(5R,6S)-6-phenyl-5-[4-(2-pyrrolidin-1-ylethoxy)phenyl]-5,6,7,8-tetrahydronaphthalen-2-ol]
inhibition of MCF-7 cell division, without vs with insulin (IC50 comparison) (MCF-7 cells): more effectively inhibited divisions of MCF-7 cell which positively expressed ER-α36
affinity for ER-α relative to those reported for raloxifene and tamoxifen (ER-α; higher affinity than raloxifene and tamoxifen, Gennari 2006): at least 10 fold
binding affinity to ER-αLBD (ER-α; reported value): 1.5 nM
affinity for ER-β relative to those reported for raloxifene and tamoxifen (ER-β): at least 10 fold
proliferation of triple negative breast cancer cells [1]: the same lasofoxifene activity was also found
colon cancer cell division (colon cancer cells): inhibited colon cancer cell division
proliferation of HBE cells (HBE cells): Neither tamoxifen nor lasofoxifene affected the proliferation of HBE cells
proliferation of H460 cells (H460 cells): inhibited
inhibition at 2 µM ([2]; Homo sapiens, MCF7, MCF-7 induced by tamoxifen for over 10 months, read-out: inhibiting activity on proliferation): > 50%
growth of xenograft H460 tumors (xenograft H460 tumors): inhibited the growth of xenograft H460 tumors
proliferation of Herceptin-resistance BT474 cells [3]: Sensitive response
gastric cancer cell division (gastric cancer cells): inhibited gastric cancer cell division
effect on Bcl-2 expression in medium without estrogen ([4]; treated 48 h): neither tamoxifen nor lasofoxifene affected Bcl-2 expression
inhibition of Bcl-2 expression ([4]; MCF-7, medium with insulin and 10% FBS 72 h, treated 48 h, 2.5 μM LAS vs 2.5 μM TAM, FIG. 2C): weaker activity to inhibit Bcl-2 expression compared with tamoxifen
dose dependence of Bcl-2 expression inhibition ([4]; MCF-7, medium with insulin and 10% FBS, 48 h, FIG. 2D): inhibited Bcl-2 expression in a dosage dependent manner
cytosolic [Ca2+]i (GPER1): significantly enhanced cytosolic [Ca^2+]i
proliferation of H1299 cells (H1299 cells; 2 μM, ER-α36 high, weak EGFR, FIG. 5-D): inhibited

O=C(c1ccc(OCCN2CCCCC2)cc1)c1c(-c2ccc(O)cc2)sc2cc(O)ccc12 [raloxifene]
cytosolic [Ca2+]i (GPER1): significantly enhanced cytosolic [Ca^2+]i

CC/C(=C(\c1ccccc1)c1ccc(OCCN(C)C)cc1)c1ccccc1 [tamoxifen]
inhibition of MCF-7 cell division, without vs with insulin (IC50 comparison) (MCF-7 cells): exerted the opposite effect
proliferation of HBE cells (HBE cells): Neither tamoxifen nor lasofoxifene affected the proliferation of HBE cells
proliferation of H460 cells (H460 cells): exhibited opposite effect
inhibiting activity on proliferation ([2]; 2 μM, MCF-7 induced by tamoxifen for over 10 months): did not inhibit MCF-7 cell proliferation
effect on Bcl-2 expression in medium without estrogen ([4]; treated 48 h): neither tamoxifen nor lasofoxifene affected Bcl-2 expression
